Some test systems named below: MDA-MB-435; SK-OV-3 ovarian; OVCAR-4 ovarian; SK-MEL-2 melanoma; OVCAR-8 ovarian; A549 NSCLC; SR leukemia; COLO 205 colon; HT29 colon; MCF7 breast; RPMI-8226 leukemia.
Test in all cases: inhibition of tumour cell growth, NCI panel, 48 h

Each structure is given as a SMILES string.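 Step 1: Grow cells in 96-well plates. Step 2: Expose to compound for 48 hours at 5 concentrations. Step 3: Interpolate endpoints linearly; if unreached, use highest concentration. At the TGI there is no net growth.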

The values that follow come from PubChem BioAssay (NCI).

On to `c1ccc2c3c(c(N4CCNCC4)nc2c1)CCCC3`, for which the TGI was 24.4 µM with MDA-MB-435; 42.7 µM in the assay with SK-OV-3 ovarian; 31.5 µM with OVCAR-4 ovarian; 25.2 µM with SK-MEL-2 melanoma; 29.6 µM in the assay with OVCAR-8 ovarian; 30.8 µM in the assay with A549 NSCLC. Besides, the TGI with SR leukemia was greater than 100 µM; with COLO 205 colon it was 18.9 µM; in the assay on HT29 colon, 28.3 µM; in the assay with MCF7 breast it was 27.6 µM.
Consider `COc1ccc(/C=N/N=C(N)N)c(C(=O)O)c1OC`, for which the TGI in the assay with SK-OV-3 ovarian is greater than 100 µM; in the assay on RPMI-8226 leukemia it was greater than 100 µM; with OVCAR-4 ovarian, greater than 100 µM; with OVCAR-8 ovarian it was greater than 100 µM; in the assay with A549 NSCLC it was greater than 100 µM; in the assay with COLO 205 colon, greater than 10 µM. The TGI in the assay on HT29 colon is greater than 100 µM.
Regarding `CN(C)CCNc1ccccn1`, the TGI in the assay with MDA-MB-435, in the assay on OVCAR-4 ovarian, in the assay on SK-MEL-2 melanoma, with OVCAR-8 ovarian, with A549 NSCLC and in the assay on SR leukemia was greater than 100 µM throughout. Besides, the TGI in the assay on HT29 colon was greater than 100 µM.
Turning to `CS(=O)(=O)c1ccc(C2=C(c3ccccc3)C(=O)OC2)cc1`, the TGI in the assay on MDA-MB-435, in the assay with SK-OV-3 ovarian, in the assay with RPMI-8226 leukemia, in the assay on OVCAR-4 ovarian, in the assay on SK-MEL-2 melanoma and with OVCAR-8 ovarian was greater than 100 µM each time. The TGI in the assay with A549 NSCLC, with SR leukemia, in the assay with COLO 205 colon and in the assay on MCF7 breast was greater than 100 µM throughout.
`O=C1OS2(OC(=O)c3cccc4cccc2c34)c2ccccc21` (stereo not drawn): the TGI in the assay on MDA-MB-435, in the assay on RPMI-8226 leukemia, with OVCAR-4 ovarian, with SK-MEL-2 melanoma, in the assay on OVCAR-8 ovarian and with A549 NSCLC was greater than 100 µM each time. For the same molecule, the TGI in the assay on COLO 205 colon, in the assay on HT29 colon and in the assay on MCF7 breast was greater than 100 µM throughout.
Consider `CC1(C)OC2C(CO)OC(/N=C(\NC#N)Oc3ccccc3)C2O1` (stereo not drawn), for which the TGI in the assay with SK-OV-3 ovarian, in the assay on RPMI-8226 leukemia, in the assay on OVCAR-4 ovarian, in the assay on OVCAR-8 ovarian, with A549 NSCLC and with SR leukemia was greater than 100 µM each time. For the same molecule, the TGI in the assay on COLO 205 colon and in the assay on HT29 colon was greater than 100 µM each time.
With `O=C1CCCn2c3ccccc3c3ccnc1c32`, the TGI with SK-OV-3 ovarian, with RPMI-8226 leukemia, in the assay on OVCAR-4 ovarian, in the assay with SK-MEL-2 melanoma, in the assay with OVCAR-8 ovarian and in the assay with A549 NSCLC was greater than 100 µM each time. Moreover, the TGI with COLO 205 colon was greater than 100 µM; in the assay on HT29 colon, greater than 56.1 µM; in the assay with MCF7 breast, greater than 100 µM.
Turning to `CN(CCN(C)Cc1ccc(Cl)c(Cl)c1)CCN1CCCC1`, the TGI is 24.3 µM with MDA-MB-435; greater than 100 µM with SK-OV-3 ovarian; 32.4 µM in the assay with RPMI-8226 leukemia; greater than 100 µM in the assay with OVCAR-4 ovarian; 59.9 µM with SK-MEL-2 melanoma; greater than 100 µM with OVCAR-8 ovarian. The TGI in the assay with A549 NSCLC is greater than 100 µM; with COLO 205 colon, 41.2 µM; in the assay with HT29 colon, greater than 72 µM; with MCF7 breast, greater than 85.1 µM.
As to `C=CCn1c(-c2ccc(N=NNc3ccc(-c4n[nH]c(=S)n4CC=C)cc3)cc2)n[nH]c1=S`, the TGI in the assay on MDA-MB-435 was greater than 100 µM; in the assay on SK-OV-3 ovarian it was 25.3 µM; with RPMI-8226 leukemia it was 4.63 µM; in the assay with OVCAR-4 ovarian, 6.35 µM; in the assay with OVCAR-8 ovarian, 8.84 µM; in the assay with A549 NSCLC, greater than 100 µM. The TGI with SR leukemia, in the assay with COLO 205 colon and in the assay with MCF7 breast was greater than 100 µM each time.
For `CSc1nc(NC2CC2)c2c(n1)Sc1nc3ccccc3n1N=C2`, the TGI in the assay with MDA-MB-435 is greater than 100 µM; in the assay with SK-OV-3 ovarian, 45.9 µM; in the assay on OVCAR-4 ovarian, 55.8 µM; with SK-MEL-2 melanoma it was 82.4 µM; in the assay with OVCAR-8 ovarian, 85.3 µM; in the assay with A549 NSCLC it was 97 µM. Moreover, the TGI is greater than 100 µM in the assay with SR leukemia, greater than 100 µM with COLO 205 colon, greater than 100 µM with HT29 colon and 96.2 µM in the assay with MCF7 breast.
As to `COc1cc(C(C)(C)C)c(OC(=O)/C=C/C(=O)O/C=C/[N+](=O)[O-])c(C(C)(C)C)c1`, the TGI is 58.1 µM in the assay on MDA-MB-435; greater than 100 µM with SK-OV-3 ovarian; greater than 100 µM in the assay on RPMI-8226 leukemia; greater than 100 µM in the assay on OVCAR-8 ovarian; 55 µM in the assay on A549 NSCLC; greater than 100 µM in the assay with SR leukemia. Further, the TGI was greater than 100 µM with COLO 205 colon, 56.6 µM with HT29 colon and 40.4 µM in the assay on MCF7 breast.
Take `C/C(=C/CC[C@](C)(OC1OC(CO)C(O)C(O)C1OC1OC(C)C(O)C(O)C1O)[C@H]1CC[C@]2(C)[C@@H]1CC[C@@H]1[C@@]3(C)CC[C@H](O)C(C)(C)[C@@H]3C[C@H](O)[C@]12C)CO` (stereo partly drawn): the TGI in the assay on MDA-MB-435, with SK-OV-3 ovarian, with RPMI-8226 leukemia, in the assay on OVCAR-4 ovarian, with OVCAR-8 ovarian and in the assay with A549 NSCLC was greater than 100 µM in each case. The TGI in the assay on SR leukemia, with COLO 205 colon, with HT29 colon and with MCF7 breast was greater than 100 µM throughout.
On to `NC1=CN2c3ccccc3N(CC(=O)N3CCOCC3)C2C=C1` (stereo not drawn), for which the TGI with MDA-MB-435, with SK-OV-3 ovarian, in the assay with OVCAR-4 ovarian, with SK-MEL-2 melanoma, in the assay with OVCAR-8 ovarian and in the assay with A549 NSCLC was greater than 100 µM throughout. Further, the TGI with SR leukemia, in the assay on COLO 205 colon, with HT29 colon and in the assay on MCF7 breast was greater than 100 µM throughout.
Regarding `COC(CO[Si](C)(C)N[Si](C)(C)OCC(OC)c1ccccc1)c1ccccc1` (stereo not drawn), the TGI in the assay on MDA-MB-435, in the assay on SK-OV-3 ovarian, with RPMI-8226 leukemia, in the assay with OVCAR-4 ovarian, with SK-MEL-2 melanoma and in the assay with OVCAR-8 ovarian was greater than 100 µM each time. Further, the TGI with A549 NSCLC, with SR leukemia, with COLO 205 colon and with MCF7 breast was greater than 100 µM in each case.
